The results in this text go back to publication PMC5218480 (PLoS ONE, 2017).

Each structure is given as a SMILES string.

The test has as its system MV-4-11 cells. Description: Gene expression microarray analysis (Affymetrix PrimeView) and GSEA. Also noted: RFU PODN (11730768_x_at) / Fold change /veh PODN (11730768_x_at) / RFU LINC00158 (11744669_a_at) / Fold change /veh LINC00158 (11744669_a_at) / RFU DUSP10 (11751237_a_at) / Fold change /veh DUSP10 (11751237_a_at) / RFU ID3 (11757404_x_at) / Fold change /veh ID3 (11757404_x_at) / RFU PLEKHG5 (11737974_s_at) / Fold change /veh PLEKHG5 (11737974_s_at) / RFU LRRC4B (11730491_at) / Fold change /veh LRRC4B (11730491_at) / RFU GIMAP4 (11747438_a_at) / Fold change /veh GIMAP4 (11747438_a_at) / RFU KRT8 (11758183_x_at) / Fold change /veh KRT8 (11758183_x_at) / RFU CNN1 (11734310_a_at) / Fold change /veh CNN1 (11734310_a_at) / RFU VPS37D (11726825_at) / Fold change /veh VPS37D (11726825_at) / RFU C10orf10 (11716522_x_at) / Fold change /veh C10orf10 (11716522_x_at) / RFU KIR2DL2 /// KIR2DL4 /// KIR2DL5A /// KIR2DL5B /// KIR2DS1 /// KIR2DS2 /// KIR2DS3 /// KIR2DS4 /// KIR3DL3 /// KIR3DL3 /// KIR3DS1 (11738374_at) / Fold change /veh KIR2DL2 /// KIR2DL4 /// KIR2DL5A /// KIR2DL5B /// KIR2DS1 /// KIR2DS2 /// KIR2DS3 /// KIR2DS4 /// KIR3DL3 /// KIR3DL3 /// KIR3DS1 (11738374_at) / RFU C1QL1 (11718748_at) / Fold change /veh C1QL1 (11718748_at) / RFU TMPRSS4 (11747572_a_at) / Fold change /veh TMPRSS4 (11747572_a_at) / RFU HAMP (11756126_x_at) / Fold change /veh HAMP (11756126_x_at) / RFU RNFT2 (11725882_a_at) / Fold change /veh RNFT2 (11725882_a_at) / RFU NR4A2 (11747474_a_at) / Fold change /veh NR4A2 (11747474_a_at) / RFU ABCC12 (11746883_a_at) / Fold change /veh ABCC12 (11746883_a_at) / RFU TMEM136 (11760407_x_at) / Fold change /veh TMEM136 (11760407_x_at) / RFU CLDN22 /// WWC2 (11732394_at) / Fold change /veh CLDN22 /// WWC2 (11732394_at) / RFU HLA-DPB1 (11760878_x_at) / Fold change /veh HLA-DPB1 (11760878_x_at) / RFU SPINT1 (11716480_a_at) / Fold change /veh SPINT1 (11716480_a_at) / RFU GAP43 (11754022_s_at) / Fold change /veh GAP43 (11754022_s_at) / RFU A4GNT (11735810_at) / Fold change /veh A4GNT (11735810_at) / RFU PRB3 (11715151_x_at) / Fold change /veh PRB3 (11715151_x_at) / RFU TUBB4B (11761932_at) / Fold change /veh TUBB4B (11761932_at) / RFU CAPN14 (11732068_a_at) / Fold change /veh CAPN14 (11732068_a_at) / RFU TMCC2 (11721928_a_at) / Fold change /veh TMCC2 (11721928_a_at) / RFU IRGQ (11745062_a_at) / Fold change /veh IRGQ (11745062_a_at) / RFU FAM174B (11720279_a_at) / Fold change /veh FAM174B (11720279_a_at) / RFU TMPRSS4 (11748680_a_at) / Fold change /veh TMPRSS4 (11748680_a_at) / RFU FAM212B (11763350_a_at) / Fold change /veh FAM212B (11763350_a_at) / RFU PLEKHG5 (11743358_a_at) / Fold change /veh PLEKHG5 (11743358_a_at) / RFU ZSCAN30 (11745921_a_at) / Fold change /veh ZSCAN30 (11745921_a_at) / RFU CMKLR1 (11741424_a_at) / Fold change /veh CMKLR1 (11741424_a_at) / RFU LOC101060620 /// MAPK8IP1 (11723275_at) / Fold change /veh LOC101060620 /// MAPK8IP1 (11723275_at) / RFU SPTSSB (11747773_x_at) / Fold change /veh SPTSSB (11747773_x_at) / RFU PRSS12 (11739890_at) / Fold change /veh PRSS12 (11739890_at) / RFU BIN1 (11741810_x_at) / Fold change /veh BIN1 (11741810_x_at) / RFU WNT11 (11732464_a_at) / Fold change /veh WNT11 (11732464_a_at) / RFU C10orf10 (11716521_a_at) / Fold change /veh C10orf10 (11716521_a_at) / RFU C5orf56 (11738089_at) / Fold change /veh C5orf56 (11738089_at) / RFU CYB561 (11721691_x_at) / Fold change /veh CYB561 (11721691_x_at) / RFU ANKRD19P (11752326_a_at) / Fold change /veh ANKRD19P (11752326_a_at) / RFU OR2T12 /// OR2T33 /// OR2T8 (11738714_s_at) / Fold change /veh OR2T12 /// OR2T33 /// OR2T8 (11738714_s_at) / RFU VCAN (11748164_a_at) / Fold change /veh VCAN (11748164_a_at) / RFU JSRP1 (11732532_at) / Fold change /veh JSRP1 (11732532_at) / RFU KRTAP10-11 (11738290_x_at) / Fold change /veh KRTAP10-11 (11738290_x_at) / RFU MYO3A (11730013_a_at) / Fold change /veh MYO3A (11730013_a_at) / RFU EBF3 (11725865_a_at) / Fold change /veh EBF3 (11725865_a_at) / RFU CAMK2N1 (11719241_x_at) / Fold change /veh CAMK2N1 (11719241_x_at) / RFU C5orf56 (11738088_a_at) / Fold change /veh C5orf56 (11738088_a_at) / RFU OLFML3 (11715873_a_at) / Fold change /veh OLFML3 (11715873_a_at) / RFU LOC100653217 /// NTM (11731650_a_at) / Fold change /veh LOC100653217 /// NTM (11731650_a_at) / RFU MAPK11 (11762145_a_at) / Fold change /veh MAPK11 (11762145_a_at) / RFU FIZ1 (11724087_x_at) / Fold change /veh FIZ1 (11724087_x_at) / RFU OASL (11726364_x_at) / Fold change /veh OASL (11726364_x_at) / RFU SOX15 (11748057_x_at) / Fold change /veh SOX15 (11748057_x_at) / RFU CD79A (11719716_a_at) / Fold change /veh CD79A (11719716_a_at) / RFU HIST1H1D (11736915_at) / Fold change /veh HIST1H1D (11736915_at) / RFU CASKIN2 (11723855_a_at) / Fold change /veh CASKIN2 (11723855_a_at) / RFU LOC730098 (11760151_x_at) / Fold change /veh LOC730098 (11760151_x_at) / RFU OR4N2 (11742367_at) / Fold change /veh OR4N2 (11742367_at) / RFU PRRT2 (11749266_a_at) / Fold change /veh PRRT2 (11749266_a_at) / RFU SNX32 (11753110_a_at) / Fold change /veh SNX32 (11753110_a_at) / RFU CDHR5 (11726645_a_at) / Fold change /veh CDHR5 (11726645_a_at) / RFU RCAN1 (11760418_a_at) / Fold change /veh RCAN1 (11760418_a_at) / RFU FAM167A (11723789_a_at) / Fold change /veh FAM167A (11723789_a_at) / RFU FAM26E (11764081_at) / Fold change /veh FAM26E (11764081_at) / RFU ISYNA1 (11749810_s_at) / Fold change /veh ISYNA1 (11749810_s_at) / RFU ACY1 (11761880_at) / Fold change /veh ACY1 (11761880_at) / RFU 11764098_at / Fold change /veh 11764098_at / RFU SAMD14 (11745864_x_at) / Fold change /veh SAMD14 (11745864_x_at) / RFU NPB (11741838_a_at) / Fold change /veh NPB (11741838_a_at) / RFU TMPRSS6 (11731388_a_at) / Fold change /veh TMPRSS6 (11731388_a_at) / RFU KRTAP10-2 (11738614_at) / Fold change /veh KRTAP10-2 (11738614_at) / RFU ARHGAP8 /// PRR5-ARHGAP8 (11727945_x_at) / Fold change /veh ARHGAP8 /// PRR5-ARHGAP8 (11727945_x_at) / RFU KRTAP5-7 /// NADSYN1 (11734609_at) / Fold change /veh KRTAP5-7 /// NADSYN1 (11734609_at) / RFU RASL12 (11751679_a_at) / Fold change /veh RASL12 (11751679_a_at) / RFU CDKN2B (11736163_a_at) / Fold change /veh CDKN2B (11736163_a_at) / RFU PRF1 (11729649_at) / Fold change /veh PRF1 (11729649_at) / RFU, ZNF638 /// ZNF638-IT1 / Fold change vs veh, ZNF638 /// ZNF638-IT1 / RFU, PANK3 / Fold change vs veh, PANK3 / RFU, SH3YL1 / Fold change vs veh, SH3YL1 / RFU, ZEB2 / Fold change vs veh, ZEB2 / RFU, NRIP1 / Fold change vs veh, NRIP1 / RFU, PTTG1IP / Fold change vs veh, PTTG1IP / RFU, CAPN2 / Fold change vs veh, CAPN2 / RFU, MED14 / Fold change vs veh, MED14 / RFU, SNORA58 / Fold change vs veh, SNORA58 / RFU, C1orf63 / Fold change vs veh, C1orf63 / RFU, LRRFIP1 / Fold change vs veh, LRRFIP1 / RFU, NDUFAF7 / Fold change vs veh, NDUFAF7 / RFU, SLC12A2 / Fold change vs veh, SLC12A2 / RFU, IBTK / Fold change vs veh, IBTK / RFU, ESF1 / Fold change vs veh, ESF1 / Fold change vs veh, TMEM50B / RFU, TAOK1 / Fold change vs veh, TAOK1 / RFU, ACBD3 / Fold change vs veh, ACBD3 / RFU, TMA16 / Fold change vs veh, TMA16 / RFU, RWDD3 / Fold change vs veh, RWDD3 / RFU, BCAT1 / Fold change vs veh, BCAT1 / RFU, EDEM3 / Fold change vs veh, EDEM3 / RFU, TMEM33 / Fold change vs veh, TMEM33 / RFU, WDR75 / Fold change vs veh, WDR75 / RFU, AHCTF1 / Fold change vs veh, AHCTF1 / RFU, TFRC / Fold change vs veh, TFRC / RFU, ZDHHC17 / Fold change vs veh, ZDHHC17 / RFU, NOM1 / Fold change vs veh, NOM1 / RFU, ARL8B / Fold change vs veh, ARL8B / RFU, ZBTB11 / Fold change vs veh, ZBTB11 / RFU, TAMM41 / Fold change vs veh, TAMM41 / RFU, KIAA1704 /// LOC100996395 / Fold change vs veh, KIAA1704 /// LOC100996395 / RFU, ING1 / Fold change vs veh, ING1 / RFU, TRMT61B / Fold change vs veh, TRMT61B / RFU, FUBP3 / Fold change vs veh, FUBP3 / RFU, TP53 / Fold change vs veh, TP53 / RFU, TNKS2 / Fold change vs veh, TNKS2 / RFU, ZFP14 / Fold change vs veh, ZFP14 / RFU, ACTR2 / Fold change vs veh, ACTR2 / RFU, PPP3R1 / Fold change vs veh, PPP3R1 / RFU, PIK3R1 / Fold change vs veh, PIK3R1 / RFU, HNRNPA1 / Fold change vs veh, HNRNPA1 / RFU, RNF170 / Fold change vs veh, RNF170 / RFU, ZNF28 / Fold change vs veh, ZNF28 / RFU, RNGTT / Fold change vs veh, RNGTT / RFU, OGT / Fold change vs veh, OGT / RFU, BRD1 / Fold change vs veh, BRD1 / RFU, MARS / Fold change vs veh, MARS / RFU, ZNF655 / Fold change vs veh, ZNF655 / RFU, FAHD1 / Fold change vs veh, FAHD1 / RFU, BDP1 / Fold change vs veh, BDP1 / RFU, LRRCC1 / Fold change vs veh, LRRCC1 / RFU, ARID1A / Fold change vs veh, ARID1A / RFU, ZNF146 / Fold change vs veh, ZNF146 / RFU, ZNF330 / Fold change vs veh, ZNF330 / RFU, GPN3 / Fold change vs veh, GPN3 / RFU, C9orf123 / Fold change vs veh, C9orf123 / RFU, N4BP2L2 / Fold change vs veh, N4BP2L2 / RFU, ARFIP1 / Fold change vs veh, ARFIP1 / RFU, FAM179B / Fold change vs veh, FAM179B / RFU, BCL10 / Fold change vs veh, BCL10 / RFU, UHRF1BP1L / Fold change vs veh, UHRF1BP1L / RFU, BET1 / Fold change vs veh, BET1 / RFU, CNOT2 / Fold change vs veh, CNOT2 / RFU, ZNF268 / Fold change vs veh, ZNF268 / Fold change vs veh, ZNF507 / RFU, DGCR2 / Fold change vs veh, DGCR2 / RFU, WDSUB1 / Fold change vs veh, WDSUB1 / Fold change vs veh, HSP90B1 /// MIR3652 / RFU, ADSS / Fold change vs veh, ADSS / RFU, GK / Fold change vs veh, GK / RFU, ZNF148 / Fold change vs veh, ZNF148 / RFU, TAF9 / Fold change vs veh, TAF9 / RFU, SLC1A5 / Fold change vs veh, SLC1A5 / RFU, SLMO2 / Fold change vs veh, SLMO2 / RFU, ABCC4 / Fold change vs veh, ABCC4 / RFU, LOC101060439 /// RAP1B / Fold change vs veh, LOC101060439 /// RAP1B / RFU, RFX7 / Fold change vs veh, RFX7 / RFU, GTPBP10 / Fold change vs veh, GTPBP10 / RFU, CNEP1R1 / Fold change vs veh, CNEP1R1 / RFU, BIVM-ERCC5 /// ERCC5 / Fold change vs veh, BIVM-ERCC5 /// ERCC5 / RFU, ILF3 / Fold change vs veh, ILF3 / RFU 11762660_at / Fold change /veh 11762660_at / RFU VCAN (11757783_s_at) / Fold change /veh VCAN (11757783_s_at) / RFU DDX43 (11728927_at) / Fold change /veh DDX43 (11728927_at) / RFU KRT8 (11758188_x_at) / Fold change /veh KRT8 (11758188_x_at) / RFU NKD1 (11759106_at) / Fold change /veh NKD1 (11759106_at) / RFU SRD5A1 (11742802_a_at) / Fold change /veh SRD5A1 (11742802_a_at) / RFU TPSAB1 /// TPSB2 (11721975_s_at) / Fold change /veh TPSAB1 /// TPSB2 (11721975_s_at) / RFU GSTM3 (11746129_a_at) / Fold change /veh GSTM3 (11746129_a_at) / RFU IL23R (11737362_x_at) / Fold change /veh IL23R (11737362_x_at) / RFU TMEM51 (11727254_a_at) / Fold change /veh TMEM51 (11727254_a_at) / RFU PIWIL2 (11732686_x_at) / Fold change /veh PIWIL2 (11732686_x_at) / RFU ORM1 (11744905_x_at) / Fold change /veh ORM1 (11744905_x_at) / RFU CCDC152 (11743942_at) / Fold change /veh CCDC152 (11743942_at) / RFU ECM1 (11717891_a_at) / Fold change /veh ECM1 (11717891_a_at) / RFU IL23R (11748794_a_at) / Fold change /veh IL23R (11748794_a_at) / RFU TNFAIP8L3 (11732012_x_at) / Fold change /veh TNFAIP8L3 (11732012_x_at) / RFU MBOAT4 (11741988_at) / Fold change /veh MBOAT4 (11741988_at) / RFU 11764193_at / Fold change /veh 11764193_at / RFU TMEM53 (11763286_at) / Fold change /veh TMEM53 (11763286_at) / RFU MAGEB2 (11727129_at) / Fold change /veh MAGEB2 (11727129_at) / RFU TMEM200A (11744735_a_at) / Fold change /veh TMEM200A (11744735_a_at) / RFU CCDC152 (11751479_a_at) / Fold change /veh CCDC152 (11751479_a_at) / RFU FAM211A (11726209_a_at) / Fold change /veh FAM211A (11726209_a_at) / RFU RGS16 (11746705_a_at) / Fold change /veh RGS16 (11746705_a_at) / RFU VCAN (11755009_s_at) / Fold change /veh VCAN (11755009_s_at) / RFU RHOB (11743442_s_at) / Fold change /veh RHOB (11743442_s_at) / RFU RGS16 (11720943_a_at) / Fold change /veh RGS16 (11720943_a_at) / RFU RGS16 (11720944_at) / Fold change /veh RGS16 (11720944_at) / RFU, VPS4B / Fold change vs veh, VPS4B / RFU, CREB1 / Fold change vs veh, CREB1 / RFU, DNAJC13 / Fold change vs veh, DNAJC13 / RFU, GNAQ / Fold change vs veh, GNAQ / RFU, CDK5R1 / Fold change vs veh, CDK5R1 / RFU, ZRANB3 / Fold change vs veh, ZRANB3 / RFU, CUL4A / Fold change vs veh, CUL4A / RFU, CCNY / Fold change vs veh, CCNY / RFU, UFL1 / Fold change vs veh, UFL1 / RFU, COG3 / Fold change vs veh, COG3 / RFU, DIAPH2 / Fold change vs veh, DIAPH2 / RFU, SKA2 / Fold change vs veh, SKA2 / RFU, AFF3 / Fold change vs veh, AFF3 / RFU, LMF1 / Fold change vs veh, LMF1 / RFU, IPO11 / Fold change vs veh, IPO11 / RFU, DFFB / Fold change vs veh, DFFB / RFU, FOXP1 / Fold change vs veh, FOXP1 / RFU, CARD8 / Fold change vs veh, CARD8 / RFU, STRN3 / Fold change vs veh, STRN3 / RFU, ADK / Fold change vs veh, ADK / RFU, RASSF2 / Fold change vs veh, RASSF2 / RFU, WIPF1 / Fold change vs veh, WIPF1 / RFU, LARP1B / Fold change vs veh, LARP1B / RFU, RASA1 / Fold change vs veh, RASA1 / RFU, RB1 / Fold change vs veh, RB1 / RFU, PPFIA1 / Fold change vs veh, PPFIA1 / RFU, MAT2A / Fold change vs veh, MAT2A / RFU, CCT5 / Fold change vs veh, CCT5 / RFU, WDR92 / Fold change vs veh, WDR92 / RFU, CUX1 / Fold change vs veh, CUX1 / RFU, TTC7A / Fold change vs veh, TTC7A / RFU, TMEM135 / Fold change vs veh, TMEM135 / RFU, DEPTOR / Fold change vs veh, DEPTOR / RFU, CPM / Fold change vs veh, CPM / RFU, DNAJB6 / Fold change vs veh, DNAJB6 / RFU, CACNA2D3 / Fold change vs veh, CACNA2D3 / RFU, DTX4 / Fold change vs veh, DTX4 / RFU, TFCP2 / Fold change vs veh, TFCP2 / RFU, GMCL1 /// GMCL1P1 / Fold change vs veh, GMCL1 /// GMCL1P1 / RFU, AEBP2 / Fold change vs veh, AEBP2 / RFU, SNHG1 /// SNORD22 /// SNORD25 /// SNORD26 /// SNORD27 /// SNORD28 /// SNORD29 /// SNORD31 / Fold change vs veh, SNHG1 /// SNORD22 /// SNORD25 /// SNORD26 /// SNORD27 /// SNORD28 /// SNORD29 /// SNORD31 / Fold change (Aza/veh), C12orf56 (ProbeSet 11735607_a_at) / Fold change (ACY-1035/veh), C12orf56 (ProbeSet 11735607_a_at) / Fold change (Aza/veh), FGFR1OP (ProbeSet 11751329_s_at) / Fold change (ACY-1035/veh), FGFR1OP (ProbeSet 11751329_s_at) / Fold change (Aza/veh), VPS36 (ProbeSet 11739960_a_at) / Fold change (ACY-1035/veh), VPS36 (ProbeSet 11739960_a_at) / RFU SYPL1 (11715823_x_at) / Fold change /veh SYPL1 (11715823_x_at) / RFU IGFBP7 (11715501_s_at) / Fold change /veh IGFBP7 (11715501_s_at) / RFU REEP3 (11722064_at) / Fold change /veh REEP3 (11722064_at) / RFU IGLL1 (11728026_x_at) / Fold change /veh IGLL1 (11728026_x_at): dose or concentration left out as unconfirmed. The note with it: ProbeSet 11746640_a_at; LIST D. The test is classed as cell-based, human.

As to `Nc1ccc(-c2cccs2)cc1NC(=O)c1ccc2c(c1)cc(C1CC1)n2CCN1CCOCC1` [ACY-1035], the “Fold change vs veh, RASSF2” value was 0.86.
